Source: US8895561B2, “Compounds and methods for treating candidiasis and aspergillus infections” (Cellceutix Corporation, priority 2012, dated 2014)
≈ marks a conversion by molar mass, not a printed value. Read-outs that look alike come from different tables or passages of the source.

Tests used:
S. aureus 27660 = experiment: Bacterial MIC, broth microdilution, CLSI; type: cell-based; details: Staphylococcus aureus, 27660; read-out: SA (MIC)
Method: (§1) Candida IC50s were determined by OD600 and fluorescence from vegetative cells and by MTS viability assay in the hyphal state. MICs were determined using a broth microdilution assay under standard CLSI conditions Bacteria strains: E. coli 25922 (EC), S. aureus 27660 (SA), E. faecalis 29212 (EF), P. aeruginosa 10145 (PA), and K. pneumoniae 13883 (KP). Cytotoxicity (EC50) was determined against mouse 3T3 fibroblasts, human transformed liver HepG2 cells, and human oral keratinocyte cell line, OKF6/TERT using an MTS viability assay. Candida IC50s<10 μg/mL, MICs<5 μg/mL and cytotoxicity EC50s>100 μM are indicated in green. MICs>5 μg/mL and cytotoxicity EC50s<100 μM are indicated in red. Candida IC50s (CA) were determined by OD600 and fluorescence from vegetative cells. MICs were determined using a broth microdilution assay under standard CLSI conditions Bacteria strains: E. coli 25922 (EC), S. aureus 27660 (SA), E. faecalis 29212 (EF), P. aeruginosa 10145 (PA), and K. pneumoniae 13883 (KP). Cytotoxicity (EC50) was determined against mouse 3T3 fibroblasts and human transformed liver HepG2 cells using an MTS viability assay.

E. faecalis 29212 = experiment: Bacterial MIC, broth microdilution, CLSI; type: cell-based; details: Enterococcus faecalis, 29212; read-out: EF (MIC)
Method: as §1

P. aeruginosa 10145 = experiment: Bacterial MIC, broth microdilution, CLSI; type: cell-based; details: Pseudomonas aeruginosa, 10145; read-out: PA (MIC)
Method: as §1

E. coli 25922 = experiment: Bacterial MIC, broth microdilution, CLSI; type: cell-based; details: Escherichia coli, 25922; read-out: EC (MIC)
Method: as §1

[1] = Cytotoxicity, MTS viability assay; type: cell-based, human
Method: Candida IC50s were determined by OD600 and fluorescence from vegetative cells and by MTS viability assay in the hyphal state. MICs were determined using a broth microdilution assay under standard CLSI conditions Bacteria strains: E. coli 25922 (EC), S. aureus 27660 (SA), E. faecalis 29212 (EF), P. aeruginosa 10145 (PA), and K. pneumoniae 13883 (KP). Cytotoxicity (EC50) was determined against mouse 3T3 fibroblasts, human transformed liver HepG2 cells, and human oral keratinocyte cell line, OKF6/TERT using an MTS viability assay. Candida IC50s<10 μg/mL, MICs<5 μg/mL and cytotoxicity EC50s>100 μM are indicated in green. MICs>5 μg/mL and cytotoxicity EC50s<100 μM are indicated in red.
Candida IC50s (CA) were determined by OD600 and fluorescence from vegetative cells. MICs were determined using a broth microdilution assay under standard CLSI conditions Bacteria strains: E. coli 25922 (EC), S. aureus 27660 (SA), E. faecalis 29212 (EF), P. aeruginosa 10145 (PA), and K. pneumoniae 13883 (KP). Cytotoxicity (EC50) was determined against mouse 3T3 fibroblasts and human transformed liver HepG2 cells using an MTS viability assay.
CLSI conditions Bacteria strains: clinical isolates; yeast strains: C. dubliniensis (NCPF3949), C. glabrata (ATCC 90030), C. krusei (ATCC 6258), C. parapsilosis (ATCC 22019), and C. tropicalis (ATCC 750). Cytotoxicity (EC50) was determined against mouse 3T3 fibroblasts, human transformed liver HepG2 cells, and human oral keratinocyte cell line, OKF6/TERT using an MTS viability assay.

C. albicans GDH2346 = experiment: Candida IC50, vegetative cells, by OD600 and fluorescence; type: cell-based; details: Candida albicans, GDH2346; vegetative cells; read-out: CA (Candida IC50)
Method: Candida IC50s were determined by OD600 and fluorescence from vegetative cells and by MTS viability assay in the hyphal state. MICs were determined using a broth microdilution assay under standard CLSI conditions Bacteria strains: E. coli 25922 (EC), S. aureus 27660 (SA), E. faecalis 29212 (EF), P. aeruginosa 10145 (PA), and K. pneumoniae 13883 (KP). Cytotoxicity (EC50) was determined against mouse 3T3 fibroblasts, human transformed liver HepG2 cells, and human oral keratinocyte cell line, OKF6/TERT using an MTS viability assay. Candida IC50s<10 μg/mL, MICs<5 μg/mL and cytotoxicity EC50s>100 μM are indicated in green. MICs>5 μg/mL and cytotoxicity EC50s<100 μM are indicated in red. Candida IC50s (CA) were determined by OD600 and fluorescence from vegetative cells. MICs were determined using a broth microdilution assay under standard CLSI conditions Bacteria strains: E. coli 25922 (EC), S. aureus 27660 (SA), E. faecalis 29212 (EF), P. aeruginosa 10145 (PA), and K. pneumoniae 13883 (KP). Cytotoxicity (EC50) was determined against mouse 3T3 fibroblasts and human transformed liver HepG2 cells using an MTS viability assay. For determination of anti-Candida IC50s, the method was modified by using RPMI/MOPS buffer pH 6.3 and by addition of FDGlu, a substrate for the yeast enzyme exoglucanase which is secreted during cell growth. This provides a fluorescent readout for cell growth which was used in addition to the traditional optical density measure of growth. OD600 and fluorescence were determined at 24 and 48 hours and the average of all 4 reads was used for the final IC50 determination.

[2] = human, HepG2 cells (transformed liver), read-out: HepG2 (cytotoxicity EC50)
[3] = mouse, 3T3 fibroblasts, read-out: 3T3 (cytotoxicity EC50)

Compound	MIC (S. aureus 27660) [µg/mL]	MIC (E. faecalis 29212) [µg/mL]	MIC (P. aeruginosa 10145) [µg/mL]	MIC (E. coli 25922) [µg/mL]	EC50 [1, 2] [µM]	EC50 [1, 3] [µM]	IC50 (C. albicans GDH2346) [µg/mL]
NCCCn1c2cc(-c3cccc(CCN)c3)ccc2c2ccc(-c3cccc(CCN)c3)cc21 [Compound 144]	0.098 (≈ 0.212 µM)	0.195 (≈ 0.421 µM)	3.13 (≈ 6.77 µM)	3.13 (≈ 6.77 µM)	188	80	3.95 (≈ 8.54 µM)
NCCCOc1cc(OCCCN)cc(-c2ccc3c(c2)c2ccccc2n3CCCN)c1 [Compound 145]	25 (≈ 56 µM)	3.13 (≈ 7.01 µM)	50 (≈ 112 µM)	> 50	790	> 1000	23.9 (≈ 53.6 µM)
NCCCn1c2cc(-c3cc(CCN)cc(CCN)c3)ccc2c2ccc(-c3cc(CCN)cc(CCN)c3)cc21 [Compound 161]	6.25 (≈ 11.4 µM)	> 50	50 (≈ 91.1 µM)	1.56 (≈ 2.84 µM)	466	356	11.8 (≈ 21.5 µM)
NCCCOc1cc(OCCCN)cc(-c2ccc3c4ccc(-c5cc(OCCCN)cc(OCCCN)c5)cc4n(CCCN)c3c2)c1 [Compound 143]	0.39 (≈ 0.583 µM)	1.56 (≈ 2.33 µM)	50 (≈ 74.8 µM)	3.13 (≈ 4.68 µM)	140	222	6.48 (≈ 9.69 µM)
NCCN(CCN)c1cccc(-c2ccc3[nH]c4ccc(-c5cccc(N(CCN)CCN)c5)cc4c3c2)c1 [Compound 156]	1.56 (≈ 2.99 µM)	> 50	12.5 (≈ 24 µM)	1.56 (≈ 2.99 µM)	> 1000	487	1.94 (≈ 3.72 µM)
NCc1cccc(-c2ccc3[nH]c4ccc(-c5cccc(CN)c5)cc4c3c2)c1 [Compound 117]							3.1 (≈ 8.21 µM)
N=C(N)NCCCCCc1cccc(-c2ccc3c4ccc(-c5cccc(CCCNC(=N)N)c5)cc4n(CCCNC(=N)N)c3c2)c1 [Compound 142]	1.56 (≈ 2.42 µM)	6.25 (≈ 9.69 µM)	25 (≈ 38.8 µM)	3.13 (≈ 4.85 µM)	100	131	1.65 (≈ 2.56 µM)
N=C(N)NCCCn1c2cc(-c3ccc(CCNC(=N)N)c(CCNC(=N)N)c3)ccc2c2ccc(-c3ccc(CCNC(=N)N)c(CCNC(=N)N)c3)cc21 [Compound 160]	1.95 (≈ 2.57 µM)	3.13 (≈ 4.12 µM)	6.25 (≈ 8.23 µM)	1.56 (≈ 2.06 µM)	28	28	1.48 (≈ 1.95 µM)
NCCCOc1cc(OCCCN)cc(-c2ccc3c4ccc(Br)cc4n(CCCN)c3c2)c1 [Compound 146]	0.39 (≈ 0.742 µM)	0.39 (≈ 0.742 µM)	12.5 (≈ 23.8 µM)	50 (≈ 95.1 µM)	341	307	44.6 (≈ 84.9 µM)
N=C(N)NCCCn1c2cc(-c3cc(CCNC(=N)N)cc(CCNC(=N)N)c3)ccc2c2ccc(-c3cc(CCNC(=N)N)cc(CCNC(=N)N)c3)cc21 [Compound 162]	0.39 (≈ 0.514 µM)	12.5 (≈ 16.5 µM)	3.13 (≈ 4.12 µM)	1.56 (≈ 2.06 µM)	273	49	3.12 (≈ 4.11 µM)
CCn1c2ccc(-c3cccc(N(CCN)CCN)c3)cc2c2cc(-c3cccc(N(CCN)CCN)c3)ccc21 [Compound 155]	0.39 (≈ 0.709 µM)	> 50	12.5 (≈ 22.7 µM)	12.5 (≈ 22.7 µM)			2.63 (≈ 4.78 µM)
NCCN(CCN)Cc1cccc(-c2ccc3[nH]c4ccc(-c5cccc(CN(CCN)CCN)c5)cc4c3c2)c1 [Compound 158]	1.56 (≈ 2.84 µM)	> 50	25 (≈ 45.5 µM)	1.56 (≈ 2.84 µM)	615	179	17.5 (≈ 31.8 µM)
NCCCn1c2cc(-c3cccc(O)c3)ccc2c2ccc(-c3cccc(O)c3)cc21 [Compound 149]	0.049 (≈ 0.12 µM)	1.56 (≈ 3.82 µM)	> 100	3.13 (≈ 7.66 µM)	20	29	> 100
NCCCc1cccc(-c2ccc3c4ccc(-c5cccc(CCCN)c5)cc4n(CCN)c3c2)c1 [Compound 140]	0.195 (≈ 0.409 µM)	3.13 (≈ 6.57 µM)	3.13 (≈ 6.57 µM)	0.78 (≈ 1.64 µM)	99	159	3.58 (≈ 7.51 µM)
NCCCOc1ccc(-c2ccc3c4ccc(-c5ccc(OCCCN)cc5)cc4n(CCCN)c3c2)cc1 [Compound 152]	0.39 (≈ 0.746 µM)	1.56 (≈ 2.98 µM)	3.13 (≈ 5.99 µM)	1.56 (≈ 2.98 µM)	12	34	3.77 (≈ 7.21 µM)
NCCCn1c2ccccc2c2ccccc21 [Compound 139]							> 100
NCCCn1c2cc(Br)ccc2c2ccc(Br)cc21 [Compound 141]	12.5 (≈ 32.7 µM)		100 (≈ 262 µM)	12.5 (≈ 32.7 µM)	62	107	
CCn1c2ccc(-c3cc(OCCCN)cc(OCCCN)c3)cc2c2cc(-c3cc(OCCCN)cc(OCCCN)c3)ccc21 [Compound 147]	0.098 (≈ 0.153 µM)	0.39 (≈ 0.61 µM)	6.25 (≈ 9.77 µM)	1.56 (≈ 2.44 µM)			
NCCCn1c2cc(-c3cccc(N)c3)ccc2c2ccc(-c3cccc(N)c3)cc21 [Compound 153]	1.56 (≈ 3.84 µM)	12.5 (≈ 30.7 µM)	100 (≈ 246 µM)	12.5 (≈ 30.7 µM)	65	46	
